Experimental findings from patent publication US20230374035A1, “RAS INHIBITORS” (Revolution Medicines, Inc., priority 2019, published 2023) are described below.

One test has as its target NRAS Q61K (Homo sapiens, UniProt P01111+P62937, Q61K). Nature of the test: Disruption of BRAF RBD interaction with Ras (FRET / MOA assay). The format is biochemical. Conditions: read-out: NRAS Q61K FRET data IC50. The procedure:
(§1) Compound is present in plate wells as a 10-point 3-fold dilution series starting at a final concentration of 30 μM. […] Compounds that facilitate disruption of a Ras:RAF complex are identified as those eliciting a decrease in the TR-FRET ratio relative to DMSO control wells.
(§2) Note—The following protocol describes a procedure for monitoring disruption of K-Ras G12C (GMP-PNP) binding to BRAF^RBD by a compound of the invention. This protocol may also be executed substituting other Ras proteins or nucleotides.
(§3) The purpose of this biochemical assay was to measure the ability of test compounds to facilitate ternary complex formation between a nucleotide-loaded K-Ras isoform and Cyclophilin A; the resulting ternary complex disrupts binding to a BRAF^RBD construct, inhibiting K-Ras signaling through a RAF effector. Data is reported as IC50 values.
(§4) Compound was present in plate wells as a 10-point 3-fold dilution series starting at a final concentration of 30 μM. […] Compounds that facilitate disruption of a K-Ras:RAF complex were identified as those eliciting a decrease in the TR-FRET ratio relative to DMSO control wells.

The target in a further test is NRAS Q61R (Homo sapiens, UniProt P01111+P62937, Q61R). The description is as above. The class given is biochemical. Conditions: read-out: NRAS Q61R FRET data IC50. The procedure: as §1, §2, §3, §4
Chain of NRAS Q61R (P01111 whole entry Q61R): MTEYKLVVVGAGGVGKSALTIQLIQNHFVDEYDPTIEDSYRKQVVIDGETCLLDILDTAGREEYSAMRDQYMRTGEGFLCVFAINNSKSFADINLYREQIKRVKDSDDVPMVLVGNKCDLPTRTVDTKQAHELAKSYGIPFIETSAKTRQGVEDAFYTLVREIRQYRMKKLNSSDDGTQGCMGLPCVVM
Chain of NRAS Q61R (P62937 whole entry): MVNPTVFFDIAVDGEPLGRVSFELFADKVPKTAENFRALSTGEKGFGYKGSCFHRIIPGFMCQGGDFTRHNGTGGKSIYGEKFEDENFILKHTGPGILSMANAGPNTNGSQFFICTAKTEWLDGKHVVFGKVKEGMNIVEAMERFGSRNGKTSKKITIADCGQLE
A further test concerns NCI-H358 (K-Ras G12C). The experiment in a line: CellTiter-Glo Cell Viability Assay. The format is cell-based. Conditions: Homo sapiens, NCI-H358, 120 h; H358, 5-day treatment. As to the method:
Determination of Cell Viability in RAS Mutant Cancer Cell Lines
Protocol: CellTiter-Glo® Cell Viability Assay
Note—The following protocol describes a procedure for monitoring cell viability of K-Ras mutant cancer cell lines in response to a compound of the invention. Other RAS isoforms may be employed, though the number of cells to be seeded will vary based on cell line used.
Test compounds (132.5 nl) were directly dispensed into the assay plates containing cells. […] On day 5, assay plates and their contents were equilibrated to room temperature for approximately 30 minutes. […] Luminescence was measured using the PerkinElmer Enspire. Data were normalized by the following: (Sample signal/Avg. DMSO)*100. The data were fit using a four-parameter logistic fit.

Chain of NRAS Q61K (P01111 whole entry Q61K): as the sequence (P01111 whole entry Q61R) above, with R61K counted along it
Chain of NRAS Q61K (P62937 whole entry): as the sequence (P62937 whole entry) above

Consider `CCn1c(-c2cccnc2[C@H](C)OC)c2c3cc(ccc31)-c1cc(O)cc(c1)C[C@H](NC(=O)[C@H](C(C)C)N(C)C(=O)[C@@H]1OCC[C@H]1c1ccccc1)C(=O)N1CCC[C@H](N1)C(=O)OCC(C)(C)C2` (atropisomer, axis not shown) [Compound A584], for which the IC50 on NRAS Q61K and at NRAS Q61R was 10 to 100 nM each time.
In the test with NCI-H358 (K-Ras G12C), `CCn1c(-c2cccnc2[C@H](C)OC)c2c3cc(ccc31)-c1csc(n1)C[C@H](NC(=O)[C@H](C(C)C)N(C)C(=O)N1CC(C3COC3)C1)C(=O)N1CCC[C@H](N1)C(=O)OCC(C)(C)C2` (atropisomer, axis not shown) [Compound A298] showed an IC50 of less than 10 nM.
Same read-out and setting: the figure for `CCn1c(-c2cccnc2[C@H](C)OC)c2c3cc(ccc31)-c1csc(n1)C[C@H](NC(=O)[C@H](C(C)C)N(C)C(=O)N1CCN3CCOCC3C1)C(=O)N1CCC[C@H](N1)C(=O)OCC(C)(C)C2` (stereo partly drawn) [Compound A296] is less than 10 nM.
For `CCn1c(-c2cccnc2[C@H](C)OC)c2c3cc(ccc31)-c1cc(O)cc(c1)C[C@H](NC(=O)C1CCC3C1C3(F)F)C(=O)N1CCC[C@H](N1)C(=O)OCC(C)(C)C2` (stereo partly drawn) [Compound A181], at NRAS Q61R, the IC50 was more than 10000 nM.
Turning to `CCn1c(-c2cccnc2[C@H](C)OC)c2c3cc(ccc31)-c1csc(n1)C[C@H](NC(=O)[C@H](C(C)C)N(C)C(=O)N1CC(C(=O)N3CCOCC3)C1)C(=O)N1CCC[C@H](N1)C(=O)OCC(C)(C)C2` (atropisomer, axis not shown) [Compound A543], the IC50 is less than 10 nM with NCI-H358 (K-Ras G12C) and 10 to 100 nM at NRAS Q61K.
The like results for `CCn1c(-c2cccnc2[C@H](C)OC)c2c3cc(ccc31)-c1csc(n1)C[C@H](NC(=O)[C@H](C(C)C)N(C)C(=O)N1CC3(CC(N4CC(F)C4)C3)C1)C(=O)N1CCC[C@H](N1)C(=O)OCC(C)(C)C2` (atropisomer, axis not shown) [Compound A457] were, in that order, less than 10 nM and 10 to 100 nM.
`CCn1c(-c2cccnc2[C@H](C)OC)c2c3cc(ccc31)-c1csc(n1)C[C@H](NC(=O)[C@H](C(C)C)N(C)C(=O)N1CC(N3CCOCC3)C1)C(=O)N1CCC[C@H](N1)C(=O)OCC(C)(C)C2` (atropisomer, axis not shown) [Compound A338]: the IC50 with NCI-H358 (K-Ras G12C) was less than 10 nM.
Same read-out and setting: for `CCn1c(-c2cccnc2[C@H](C)OC)c2c3cc(ccc31)-c1csc(n1)C[C@H](NC(=O)[C@H](C(C)C)N(C)C(=O)N1CCN(C(=O)C3CC3)CC1)C(=O)N1CCC[C@H](N1)C(=O)OCC(C)(C)C2` (atropisomer, axis not shown) [Compound A607] the value was less than 10 nM.
Still for that read-out and setting: for `CCn1c(-c2cccnc2[C@H](C)OC)c2c3cc(ccc31)-c1cc(O)cc(c1)C[C@H](NC(=O)[C@H](C(C)C)N(C)C(=O)[C@@H]1CCN(C(=O)OC)C1)C(=O)N1CCC[C@H](N1)C(=O)OCC(C)(C)C2` (atropisomer, axis not shown) [Compound A365] the value was less than 10 nM.
For `CCn1c(-c2cccnc2[C@H](C)OC)c2c3cc(ccc31)-c1csc(n1)C[C@H](NC(=O)[C@H](C(C)C)N(C)C(=O)N1CC(S(=O)(=O)N(C)C)C1)C(=O)N1CCC[C@H](N1)C(=O)OCC(C)(C)C2` (atropisomer, axis not shown) [Compound A551], the concentration for half-maximal inhibition (IC50) in the test on NCI-H358 (K-Ras G12C) was less than 10 nM; at NRAS Q61K it was 10 to 100 nM.
Take `CCn1c(-c2cccnc2[C@H](C)OC)c2c3cc(ccc31)-c1csc(n1)C[C@H](NC(=O)[C@H](C(C)C)N(C)C(=O)N1CC([C@@H](CO)OC)C1)C(=O)N1CCC[C@H](N1)C(=O)OCC(C)(C)C2` (atropisomer, axis not shown) [Compound A514]: the IC50 was less than 10 nM in the test with NCI-H358 (K-Ras G12C) and 10 to 100 nM on NRAS Q61K.
Consider `CCn1c(-c2cccnc2[C@H](C)OC)c2c3cc(ccc31)-c1csc(n1)C[C@H](NC(=O)[C@H](C(C)C)N(C)C(=O)N1CCO[C@H](C)C1)C(=O)N1CCC[C@H](N1)C(=O)OCC(C)(C)C2` (atropisomer, axis not shown) [Compound A310], for which the IC50 is less than 10 nM in the test on NCI-H358 (K-Ras G12C) and 10 to 100 nM on NRAS Q61K.
On to `CO[C@@H](C)c1ncccc1-c1c2c3cc(ccc3n1CC(F)(F)F)-c1csc(n1)C[C@H](NC(=O)[C@H](C(C)C)N(C)C(=O)N1CC(N(C)C)C1)C(=O)N1CCC[C@H](N1)C(=O)OCC(C)(C)C2` [Compound A303], for which the half-inhibitory concentration (IC50) in the test on NCI-H358 (K-Ras G12C) was less than 10 nM.
Molecule `CCn1c(-c2cc(N3CCN(C)CC3)cnc2[C@H](C)OC)c2c3cc(ccc31)-c1csc(n1)C[C@H](NC(=O)[C@H](C(C)C)N(C)C(=O)[C@@H]1OCC[C@@H]1c1cccnc1)C(=O)N1CCC[C@H](N1)C(=O)OCC(C)(C)C2` (atropisomer, axis not shown) [Compound A490] yielded an IC50 in the test with NCI-H358 (K-Ras G12C) of less than 10 nM.
Take `CCn1c(-c2cccnc2[C@H](C)OC)c2c3cc(ccc31)-c1csc(n1)C[C@H](NC(=O)[C@H](C(C)C)N(C)C(=O)N1CC(O)C1)C(=O)N1CCC[C@H](N1)C(=O)OCC(C)(C)C2` (atropisomer, axis not shown) [Compound A358]: the IC50 is less than 10 nM in the test on NCI-H358 (K-Ras G12C) and 10 to 100 nM on NRAS Q61K.
As for `CCn1c(-c2cccnc2[C@H](C)OC)c2c3cc(ccc31)-c1csc(n1)C[C@H](NC(=O)[C@H](C(C)C)N(C)C(=O)N1CCCC[C@H](N(C)C)C1)C(=O)N1CCC[C@H](N1)C(=O)OCC(C)(C)C2` (atropisomer, axis not shown) [Compound A491], the IC50 on NRAS Q61K lay in the range of 10 to 100 nM.
As for `CCn1c(-c2cc(N3CCN(C)CC3)cnc2[C@H](C)OC)c2c3cc(ccc31)-c1csc(n1)C[C@H](NC(=O)[C@H](C(C)C)N(C)C(=O)[C@H]1CCCS1(=O)=O)C(=O)N1CCC[C@H](N1)C(=O)OCC(C)(C)C2` (atropisomer, axis not shown) [Compound A439], the IC50 with NCI-H358 (K-Ras G12C) is less than 10 nM.
Take `CCn1c(-c2cccnc2[C@H](C)OC)c2c3cc(ccc31)-c1csc(n1)C[C@H](NC(=O)[C@H](C(C)C)N(C)C(=O)N(C)CCc1ccncc1)C(=O)N1CCC[C@H](N1)C(=O)OCC(C)(C)C2` (atropisomer, axis not shown) [Compound A557]: the half-inhibitory concentration (IC50) on NRAS Q61K lay within 10 to 100 nM.
For the molecule `CCn1c(-c2cccnc2[C@H](C)OC)c2c3cc(ccc31)-c1csc(n1)C[C@H](NC(=O)[C@H](C(C)C)N(C)C(=O)N1CCN3C(=O)CN(C)C[C@H]3C1)C(=O)N1CCC[C@H](N1)C(=O)OCC(C)(C)C2` (atropisomer, axis not shown) [Compound A537], at NRAS Q61K, the 50% inhibitory concentration (IC50) was 10 to 100 nM.
As to `CCn1c(-c2cccnc2[C@H](C)OC)c2c3cc(ccc31)-c1csc(n1)C[C@H](NC(=O)[C@H](C(C)C)N(C)C(=O)N1C3COCC1C3)C(=O)N1CCC[C@H](N1)C(=O)OCC(C)(C)C2` [Compound A540], the IC50 on NRAS Q61K lay within 10 to 100 nM.
Same read-out and setting: the figure for `CCn1c(-c2cccnc2[C@H](C)OC)c2c3cc(ccc31)-c1csc(n1)C[C@H](NC(=O)[C@H](C(C)C)N(C)C(=O)N1CCO[C@@H](CN(C)C)C1)C(=O)N1CCC[C@H](N1)C(=O)OCC(C)(C)C2` (atropisomer, axis not shown) [Compound A591] is 10 to 100 nM.
`CCn1c(-c2cccnc2[C@H](C)OC)c2c3cc(ccc31)-c1csc(n1)C[C@H](NC(=O)[C@H](C(C)C)N(C)C(=O)N1CC([C@H](CO)OC)C1)C(=O)N1CCC[C@H](N1)C(=O)OCC(C)(C)C2` (atropisomer, axis not shown) [Compound A515]: the IC50 in the test with NCI-H358 (K-Ras G12C) is less than 10 nM; on NRAS Q61K it was 10 to 100 nM.
On to `CCn1c(-c2cccnc2[C@H](C)OC)c2c3cc(ccc31)-c1csc(n1)C[C@H](NC(=O)[C@H](C(C)C)N(C)C(=O)N1C[C@H](N)[C@@H](O)C1)C(=O)N1CCC[C@H](N1)C(=O)OCC(C)(C)C2` (atropisomer, axis not shown) [Compound A581], for which the IC50 at NRAS Q61K is 10 to 100 nM.
Turning to `CCn1c(-c2cccnc2[C@H](C)OC)c2c3cc(ccc31)-c1csc(n1)C[C@H](NC(=O)[C@H](C(C)C)N(C)C(=O)N1CCO[C@H](CN(C)C)C1)C(=O)N1CCC[C@H](N1)C(=O)OCC(C)(C)C2` (atropisomer, axis not shown) [Compound A590], the 50% inhibitory concentration (IC50) was less than 10 nM in the test on NCI-H358 (K-Ras G12C) and 10 to 100 nM at NRAS Q61K.
On to `CCn1c(-c2cccnc2[C@H](C)OC)c2c3cc(ccc31)-c1csc(n1)C[C@H](NC(=O)[C@H](C(C)C)N(C)C(=O)N1CCC13CCS(=O)(=O)CC3)C(=O)N1CCC[C@H](N1)C(=O)OCC(C)(C)C2` (atropisomer, axis not shown) [Compound A530], for which the half-inhibitory concentration (IC50) on NRAS Q61K lay within 10 to 100 nM.
Still for that read-out and setting: the figure for `CCn1c(-c2cccnc2[C@H](C)OC)c2c3cc(ccc31)-c1csc(n1)C[C@H](NC(=O)[C@H](C(C)C)N(C)C(=O)N1CCC[C@H](N(C)C)C1)C(=O)N1CCC[C@H](N1)C(=O)OCC(C)(C)C2` (atropisomer, axis not shown) [Compound A569] is 10 to 100 nM; for `CCn1c(-c2cccnc2[C@H](C)OC)c2c3cc(ccc31)-c1csc(n1)C[C@H](NC(=O)[C@H](C(C)C)N(C)C(=O)N1CCO[C@H](c3ccccc3)C1)C(=O)N1CCC[C@H](N1)C(=O)OCC(C)(C)C2` (atropisomer, axis not shown) [Compound A582] it is 10 to 100 nM.
